In US10758619B2, “Controlled release mucoadhesive systems” (THE OHIO STATE UNIVERSITY, priority 2010, dated 2020):
≈ marks a conversion by molar mass, not a printed value.

Assays:
[1] = Water solubility of fenretinide; assay type: physicochemical
[2] = Solubility of fenretinide in simulated saliva; assay type: physicochemical; conditions: pH 6.8
Procedure: The extent of solubility enhancement of fenretinide by numerous solubilizers (bile salts, surfactants, hydrophilic polymers, and co-solvents) was studied by determining the solubility in simulated saliva in the presence of 0.5, 1, 2, and 5% w/v solubilizers. Briefly, an excess amount of fenretinide was added into separate amber color ampoules containing 1-mL 0.5, 1, 2, and 5% w/v solutions of solubilizers (prepared using N2-purged simulated saliva) and sealed under vacuum in order remove the oxygen from the head-space. The ampoules were then placed in an incubator maintained at 37° C. and shaken at 240 RPM for 72 h (this duration was determined to be sufficient to reach the equilibrium). After 72 h, the ampoules were broken, mixture was passed through 0.45 μm PVDF filter units (Millipore, USA), diluted suitably with respective solubilizer solution, and the amount of fenretinide solubilized in simulated saliva was determined by HPLC.

[3] = Fenretinide solubility in bovine serum; assay type: physicochemical; conditions: for time required to achieve equilibrium with bovine serum: 37° C.
Procedure: Excessive amount of fenretinide was added into fetal bovine serum in polypropylene tubes. The sample was placed on a mechanical circulator and incubated at 37 C avoiding light. At every 24 hours (until fenretinide reached saturation in serum), the sample was centrifuged at 8000 rpm for 10 minutes. 0.2 ml sample was drawn from the supernatant. This volume was immediately replaced using blank serum. The tubes were shook to mix the supernatant and sediment, and then re-placed on the mechanical circulator and incubated at 37 C. The fenretinide concentration in the supernatant was measured by a HPLC assay after extraction using acetonitrile.
A known quantity (0.9, 2.26, 3.97, 8.03, and 20.5 mg) of fenretinide was added to polypropylene tubes containing 15 mL fetal bovine serum. The samples were incubated at 37° C. under constant rotation using a rigged rotator and protection from light. At every 24 h till 7 days, the samples were centrifuged at 8000 rpm for 10 minutes and 200 μl of supernatant was withdrawn. Withdrawn serum sample was replaced with fresh serum sample, mixed properly, and incubated again under similar conditions. To the withdrawn sample (200 μl), 2 mL of acetonitrile was added, agitated overnight on a mechanical shaker with protection from light, passed through 0.45 μm PVDF filter units, and analyzed by HPLC.

[4] = cited from earlier work
[5] = system: cellular terminal differentiation and apoptosis; conditions: cited from earlier work

## CC1=C(/C=C/C(C)=C/C=C/C(C)=C/C(=O)Nc2ccc(O)cc2)C(C)(C)CCC1 [Fenretinide, 4-hydroxy(phenyl)retinamide]
[1]
  water solubility: below HPLC detection limit
[2]
  solubility in simulated saliva: insoluble
[3]; 0.9 mg fenretinide in 15 mL serum
  time required to achieve equilibrium with bovine serum: 7 days
[3]; 8.03 mg fenretinide in 15 mL serum
  time required to achieve equilibrium with bovine serum: 4 days
[3]; fetal bovine serum, 37° C. (Example 3, FIG. 10A)
  solubility of fenretinide in bovine serum: 21 µg/mL
[3]; plasma or biological fluid, thermodynamic from solid, fetal bovine serum, 37 C, after 6 days incubation (Example 2)
  solubility at 6 days: 20.9 ± 1.02 µg/mL (≈ 53.5 µM)
[3]; plasma or biological fluid, thermodynamic from solid, fetal bovine serum, 37° C. (Example 3, FIG. 10A)
  solubility: 21 ± 1 µg/mL (≈ 53.6 µM)
[4]
  intrinsic aqueous solubility: 0.0098 µg/mL
[5]
  in vitro concentration inducing apoptosis: > 5 µM
  in vitro concentration inducing cellular terminal differentiation: < 3 µM
